Measured values published in patent US20200062696A1, “COMPOSITIONS AND METHODS FOR INHIBITING RETICULON 4” (THE REGENTS OF THE UNIVERSITY OF CALIFORNIA, priority 2017, published 2020).

Assays:
[1] = system: SW620 colorectal cancer cells; assay: Serum-free cell survival of SW620 cells (Hoescht staining); assay type: cell-based; settings: Homo sapiens, SW-620, cysteine-reactive fragment 50 μM, 48 h, vs DMSO, average of n = 3/group, read-out: SW620 survival Ave
Protocol: (§1) Cell Culture. SW620 cells were purchased from ATCC. SW620 cells were grown in L-15 media with 10% fetal bovine serum (FBS) in ambient CO2. U2OS cells were grown in DMEM media supplemented with 10% FBS at 37° C. with 5% CO2.
(§2) Survival and Proliferation Assays. Cells were plated the evening before the experiment, and allowed to adhere overnight. For serum-free cell survival assays, cells were plated in media not containing FBS. For cell proliferation assays, cells were plated in regular media. For the chemical genetics screen, cells were treated with either DMSO or the cysteine-reactive fragment for 48 h and cell viability was assessed by Hoescht stain using our previously described methods

[2] = system: SW620 colorectal cancer cells; assay: Cell proliferation of SW620 cells (Hoescht staining); assay type: cell-based; settings: Homo sapiens, SW-620, cysteine-reactive fragment 50 μM, 48 h, vs DMSO, average of n = 3/group, read-out: SW620 proliferation Ave
Protocol: as §1, §2

SMILES	viability at 50 µM [1] [%]	activity at 50 µM [2] [%]
C=CC(=O)NCc1ccc(Br)cc1 [DKM 2-43, N-(4-bromobenzyl)acrylamide]	84	128
COc1ccc(CNC(=O)CCl)cc1 [DKM 2-83, 2-chloro-N-(4-methoxybenzyl)acetamide]	66	48
CCCCCCCCCCNC(=O)CCl [DKM 2-72, 2-Chloro-N-decylacetamide]	96	100
C=CC(=O)N1CCC(C#N)CC1 [DKM 3-11, 1-acryloylpiperidine-4-carbonitrile]	120	118
C=CC(=O)NCc1ccc(OC)c(OC)c1 [DKM 2-110, N-(3,4-dimethoxybenzyl)acrylamide]	112	95
CCOC(=O)N1CCN(C(=O)CCl)CC1 [DKM 2-52, Ethyl 4-(2-chloroacetyl)piperazine-1-carboxylate]	92	53
C=CC(=O)N1CCC(C(=O)OCC)CC1 [DKM 2-120, Ethyl 1-acryloylpiperidine-4-carboxylate]	102	96
C=CC(=O)NCC(OCC)OCC [DKM 3-9, N-(2,2-diethoxyethyl)acrylamide]	75	100
C=CC(=O)N(C)Cc1ccccc1 [DKM 2-95, N-benzyl-N-methylacrylamide]	52	85
C=CC(=O)Nc1ccc(-c2ccc(CC)cc2)cc1 [DKM 3-16, N-(4′-ethyl-[1,1′-biphenyl]-4-yl)acrylamide]	34	60
C=CC(=O)Nc1ccc(F)cc1 [DKM 3-31, N-(4-fluorophenyl)acrylamide]	65	99
C=CC(=O)N(C1CCCCC1)C1CCCCC1 [DKM 2-114, N,N-dicyclohexylacrylamide]	76	111
C=CC(=O)NCCOc1ccccc1 [DKM 2-113, N-(2-phenoxyethyl)acrylamide]	75	147
Cc1ccccc1CNC(=O)CCl [TRH 1-55, 2-Chloro-N-(2-methylbenzyl)acetamide]	47	53
C=CC(=O)NCc1ccc(OC)cc1 [DKM 2-33, N-(4-methoxybenzyl)acrylamide]	92	115
C=CC(=O)Nc1ccc(-c2ccc(C#N)cc2)cc1 [DKM 2-98, N-(4′-cyano-[1,1′-biphenyl]-4-yl)acrylamide]	52	42
C=CC(=O)N1CCOCC1 [DKM 2-49, 1-morpholinoprop-2-en-1-one]	80	109
C=CC(=O)NC(C)CCc1ccccc1 (centres unmarked) [DKM 2-32, N-(4-phenylbutan-2-yl)acrylamide]	91	114
C=CC(=O)Nc1cc(F)ccc1F [DKM 2-40, N-(2,5-difluorophenyl)acrylamide]	36	98
CC(CCc1ccccc1)NC(=O)CCl (centres unmarked) [DKM 2-76, 2-Chloro-N-(4-phenylbutan-2-yl)acetamide]	44	50

SMILES	viability at 50 µM [1] [%]	activity at 50 µM [2] [%]
O=C(CCl)N1CCCC1 [DKM 2-71, 2-Chloro-1-(pyrrolidin-1-yl)ethan-1-one]	81	41
C=CC(=O)Nc1ccc(C(C)=O)cc1 [DKM 3-7, N-(4-acetylphenyl)acrylamide]	51	100
C=CC(=O)NCc1ccc(C(F)(F)F)cc1 [DKM 2-116, N-(4-(trifluoromethyl)benzyl)acrylamide]	123	90
C=CC(=O)N1CCC(c2ccccc2)CC1 [DKM 2-97, 1-(4-phenylpiperidin-1-yl)prop-2-en-1-one]	106	96
C=CC(=O)Nc1ccc(OC)cc1 [TRH 1-32, N-(4-methoxyphenyl)acrylamide]	55	100
C=CC(=O)NC(C)CC (centres unmarked) [DKM 3-32, N-(sec-butyl)acrylamide]	70	95
C=CC(=O)NCCCC [DKM 2-102, N-butylacrylamide]	124	133
C=CC(=O)NCCOc1ccccc1OC [DKM 2-58, N-(2-(2-methoxyphenoxy)ethyl)acrylamide]	98	116
C=CC(=O)N1CCc2ccccc21 [DKM 2-101, 1-(indolin-1-yl)prop-2-en-1-one]	39	96
C=CC(=O)NCCCc1ccccc1 [DKM 2-50, N-(3-phenylpropyl)acrylamide]	89	130
C=CC(=O)NC(c1ccccc1)(c1ccccc1)c1ccccc1 [DKM 3-41, N-tritylacrylamide]	55	93
C=CC(=O)N1CCC(OC)CC1 [DKM 2-109, 1-(4-methoxypiperidin-1-yl)prop-2-en-1-one]	140	96
C=CC(=O)NC(C)c1ccccc1 (centres unmarked) [TRH 1-20, N-(1-phenylethyl)acrylamide]	114	121
C=CC(=O)N1CCN(c2ccc(OC)cc2)CC1 [DKM 3-36, 1-(4-(4-methoxyphenyl)piperazin-1-yl)prop-2-en-1-one]	54	97
O=C(CCl)Nc1cccc2c1CCC2 [DKM 2-91, 2-chloro-N-(2,3-dihydro-1H-inden-4-yl)acetamide]	38	59
C=CC(=O)NCCCOC [DKM 2-103, N-(3-methoxypropyl)acrylamide]	135	112
C=CC(=O)Nc1ccc(C(F)(F)F)cc1 [TRH 1-50, N-(4-(trifluoromethyl)phenyl)acrylamide]	58	76
C=CC(=O)NCCN1CCOCC1 [DKM 2-100, N-(2-morpholinoethyl)acrylamide]	138	100
C=CC(=O)NCc1cc(C)cc(C)c1 [DKM 2-47, N-(3,5-dimethylbenzyl)acrylamide]	78	112
C=CC(=O)NCc1ccccc1-c1ccccc1 [DKM 2-59, N-([1,1′-biphenyl]-2-ylmethyl)acrylamide]	66	74

SMILES	viability at 50 µM [1] [%]	activity at 50 µM [2] [%]
C=CC(=O)Nc1ccc(SC)cc1 [DKM 3-10, N-(4-(methylthio)phenyl)acrylamide]	41	79
O=C(CCl)NCc1ccc(F)cc1 [DKM 2-80, 2-chloro-N-(4-fluorobenzyl)acetamide]	47	48
C=CC(=O)NCc1ccc(-c2ccccc2)cc1 [DKM 2-37, N-([1,1′-biphenyl]-4-ylmethyl)acrylamide]	57	73
C=CC(=O)NCc1ccc(F)cc1 [DKM 2-34, N-(4-fluorobenzyl)acrylamide]	78	105
C=CC(=O)N1CCN(c2ccc(C(C)=O)cc2)CC1 [DKM 3-29, 1-(4-(4-acetylphenyl)piperazin-1-yl)prop-2-en-1-one]	79	121
C=CC(=O)NCCCSC [DKM 3-12, N-(3-(methylthio)propyl)acrylamide]	129	106
C=CC(=O)N1CCCC1 [DKM 2-48, 1-(pyrrolidin-1-yl)prop-2-en-1-one]	90	85
C=CC(=O)NC1CCCC1 [DKM 2-108, N-cyclopentylacrylamide]	61	95
O=C(CCl)NCc1ccccc1 [DKM 2-67, N-benzyl-2-chloroacetamide]	87	73
C=CC(=O)NCc1ccccc1Cl [DKM 2-60, N-(2-chlorobenzyl)acrylamide]	108	100
C=CC(=O)NC/C=C(\C)CCC=C(C)C [DKM 3-42, (E)-N-(3,7-dimethylocta-2,6-dien-1-yl)acrylamide]	104	112
C=CC(=O)NCc1ccc2c(c1)OCO2 [DKM 3-43, N-(benzo[d][1,3]dioxol-5-ylmethyl)acrylamide]	52	94
C=CC(=O)N(c1ccccc1)c1ccccc1 [DKM 3-70, N,N-diphenylacrylamide]	57	53
CCCN(C)C(=O)CCl [TRH 1-53, 2-Chloro-N-methyl-N-propylacetamide]	69	72
C=CC(=O)NCC1CCCCC1 [DKM 3-13, N-(cyclohexylmethyl)acrylamide]	77	94
C=CC(=O)NCc1ccccc1C [TRH 1-54, N-(2-methylbenzyl)acrylamide]	175	139
C=CC(=O)Nc1ccc2c(c1)OCO2 [DKM 2-86, N-(benzo[d][1,3]dioxol-5-yl)acrylamide]	109	102
C=CC(=O)N1CCN(c2ccccc2)CC1 [DKM 3-5, 1-(4-phenylpiperazin-1-yl)prop-2-en-1-one]	59	82
